Experimental findings from patent US7446119B2, “Miticidal triazolidine derivatives” (Crompton Corporation, priority 2005, dated 2008) are described below.

Structures are written as SMILES.

For assay [1], the system named is Tetranychus urticae Koch. Put plainly: Mite ovicide test (MIOV). As to conditions: mite eggs on cowpea leaves, sprayed to run off with 100 ppm, examined nine days after treatment, based on unhatched eggs. The class given is in vivo. The protocol:
The remaining examples relate to the miticidal use of the compounds of this invention. In all these examples, a stock solution for the compounds was prepared at 3000 ppm by dissolving each compound to be tested in acetone with 0.67% Tween (v/v), a wetting agent. […] For each example that follows, this stock solution was used and the specificized dilutions made. All the tests discussed below, which involved treatment with compounds of this invention were always repeated with controls, in which the active compound was not provided, to permit a comparison upon which the percent control was calculated. One day before treatment of cowpea primary leaves with the test solutions, rings of tree tanglefoot were applied to each of two cowpea primary leaves, one from each of two plants in a pot. For the mite ovicide tests, groups of adult mites (Tetranychus urticae Koch) were transferred into the rings one day before treatment and the females were allowed to deposit eggs until one hour before treatment, at which point all the adults were removed. The plants were then sprayed to run off with a 100 ppm solution diluted from the 3000 ppm stock solution. Nine days following treatment the ovicide rings were examined for unhatched eggs and living immature mites. The percent control was estimated based on the number of unhatched eggs.

Assay [2] deals with Tetranychus urticae Koch. Briefly: Mite adulticide pre-infection test (MI). The class given is in vivo. As to conditions: cowpea plants sprayed to run off with 300 ppm, adult mites transferred one day after treatment, examined five days later. The method, then: The remaining examples relate to the miticidal use of the compounds of this invention. In all these examples, a stock solution for the compounds was prepared at 3000 ppm by dissolving each compound to be tested in acetone with 0.67% Tween (v/v), a wetting agent. […] For each example that follows, this stock solution was used and the specificized dilutions made. All the tests discussed below, which involved treatment with compounds of this invention were always repeated with controls, in which the active compound was not provided, to permit a comparison upon which the percent control was calculated. One day before treatment of cowpea primary leaves with the test solutions, rings of tree tanglefoot were applied to each of two cowpea primary leaves, one from each of two plants in a pot. For the mite adulticide pre-infection tests, plants were sprayed to run off with a 300 ppm solution diluted from the 3000 ppm stock solution. One day following treatment of the plants with the test solution, groups of approximately 25 adult mites were transferred into the rings. Five days later these rings were examined for live mites remaining on the leaves. The percent control was estimated based on the number of mites surviving on the control plants.

As for `COc1ccc(-c2ccccc2)cc1N1CN(C)CN1C(=O)OC(C)C` [Compound 1, 1-methylethyl 2-(4-methoxy-[1,1′-biphenyl]-3-yl)-4-methyl-1,2,4-triazolidine-1-carboxylate], the “Percent Control MIOV” value in assay [1] is on record as 100%. Further, the “Percent Control MI” value in assay [2] came out at 100%.
